Measurements taken from patent US9528156B2, “Method for determining the predisposition of a patient to changed biotransformation and to the development of undesired drug effects in a treatment of the patient with atrovastatin” (Robert Bosch GmbH, priority 2009, dated 2016).

How the values were obtained:
recombinant UGT1A3 = biological target: T1, recombinant UGT1A3 (Homo sapiens, UniProt P35503); details: among various recombinant UGT enzymes; substrate 0.6 μM and 6 μM
T1 sequence (P35503 29-534): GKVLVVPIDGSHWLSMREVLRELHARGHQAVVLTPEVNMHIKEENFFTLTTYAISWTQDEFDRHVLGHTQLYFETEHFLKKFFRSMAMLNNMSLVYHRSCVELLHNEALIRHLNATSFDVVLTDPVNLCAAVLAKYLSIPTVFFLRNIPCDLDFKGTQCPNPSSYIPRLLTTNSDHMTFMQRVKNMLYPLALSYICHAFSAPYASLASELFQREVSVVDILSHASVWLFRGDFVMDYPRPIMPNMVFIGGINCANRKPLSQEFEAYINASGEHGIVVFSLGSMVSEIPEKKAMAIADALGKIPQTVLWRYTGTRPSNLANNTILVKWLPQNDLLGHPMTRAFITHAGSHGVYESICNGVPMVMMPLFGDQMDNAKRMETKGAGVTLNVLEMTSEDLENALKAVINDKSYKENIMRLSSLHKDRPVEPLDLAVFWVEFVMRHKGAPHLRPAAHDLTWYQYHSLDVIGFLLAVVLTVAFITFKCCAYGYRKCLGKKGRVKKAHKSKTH
Experimental: (§1) The reaction is started by addition of 10 mM UDP glucuronic acid, the cosubstrate of the UDP glucuronosyl transferases (UGT). The samples were incubated for 30 minutes. The reaction was stopped by addition of 25 μl of ice-cold 250 mM formic acid in acetonitrile and the vortexed samples were immediately placed on ice. […] The samples were centrifuged for 5 minutes at 13,000 rpm and placed in glass vessels for the LC/MS measurement.
(§2) The samples are separated on an XBridge Shield RP18 3.5 μm column with a C8 precolumn with a 1 mM formic acid and acetonitrile gradient for 23 minutes at 30° C. The masses are detected by HCT Esquire plus mass spectrometer, this being after electrospray ionization of the substances separated by the column.

UGT1A3 = details: human liver microsomes, genotype-phenotype correlation
Experimental: as §1, §2

UGT1A1 = biological target: T2, UGT1A1 (Homo sapiens, UniProt P22309); assay: ATV lactonization by recombinant UGT1A1 (LC-MS); format: in vitro ADME; details: among various recombinant UGT enzymes; substrate 0.6 μM and 6 μM
T2 sequence (P22309 26-533): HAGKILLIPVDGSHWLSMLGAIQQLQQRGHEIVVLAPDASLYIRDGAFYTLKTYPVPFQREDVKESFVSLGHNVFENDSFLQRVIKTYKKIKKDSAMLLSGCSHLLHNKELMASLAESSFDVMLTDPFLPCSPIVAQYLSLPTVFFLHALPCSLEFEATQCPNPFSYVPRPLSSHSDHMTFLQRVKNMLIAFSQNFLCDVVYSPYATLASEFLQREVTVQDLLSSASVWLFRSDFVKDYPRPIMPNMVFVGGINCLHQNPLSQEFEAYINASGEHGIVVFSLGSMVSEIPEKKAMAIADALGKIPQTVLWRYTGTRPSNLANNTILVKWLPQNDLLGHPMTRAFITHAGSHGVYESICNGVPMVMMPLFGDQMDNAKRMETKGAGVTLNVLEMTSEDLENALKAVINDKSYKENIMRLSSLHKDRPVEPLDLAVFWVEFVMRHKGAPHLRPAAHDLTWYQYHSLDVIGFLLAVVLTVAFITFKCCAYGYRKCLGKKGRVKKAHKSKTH
Experimental: as §1, §2

- specific activity for the catalysis of the ATV lactonization (recombinant UGT1A3): highest specific activity
- activity for ATV lactonization in homozygotic UGT1A3*2 carriers compared to wild type samples (UGT1A3): increased twofold
- activity for the catalysis of the ATV lactonization (UGT1A1): only low activity
SMILES: CC(C)c1c(C(=O)Nc2ccccc2)c(-c2ccccc2)c(-c2ccc(F)cc2)n1CC[C@@H](O)C[C@@H](O)CC(=O)O [atorvastatin]
